SMILES strings stand for the structures. Entries after “also recorded” stand apart in the source; their conditions may differ. Bounds are passed on as bounds.

Data set [1] addresses T1, Coronary A2-Adenosine Receptor (Canis lupus familiaris, UniProt P11617).
T1 construct: The assay of coronary vasoactivity in the anesthetized, open-chest dog; from tissue; host or cells: coronary vessels in situ, anesthetized open-chest dog
Nature of the data set: Coronary vasoactivity in the anesthetized, open-chest dog (intracoronary infusion; MPR from EC50). The data set is classed as in vivo. The text has this: (§1) In the present invention there is compared the A1 - and A2 -potencies of a series of long-chain derivatives of adenosine suitable for attachment to "carriers," such as peptides or proteins, and for immobilization to polymeric matrices for affinity chromatography of adenosine receptors. The method employed is a comparison of increasing coronary blood flow via activation of an A2 -adenosine receptor versus an A1 -binding assay in rat brain.
(§2) The potencies at A2 -receptors (Table 1) are expressed as a molar potency ratio of the EC50 value of adenosine divided by that of the adenosine analogue. A common reference compound on which to base molar potency ratios was needed to facilitate comparison of activities at A1 and A2 receptors. Adenosine itself cannot be used as a reference in the A1 binding assay since treatment of the membranes with adenosine deaminase is essential. […] Thus, MeAdo was used as a suitable reference compound.
The assay of coronary vasoactivity in the anesthetized, open-chest dog, is described by Kusachi et al, J. Med. Chem., in press, and Olsson, et al, J. Circ. […] The assay estimates an EC-50, the concentration of analogue which produces a half maximum change in coronary conductance (reciprocal resistance). To reduce between-animal variability activity is expressed as a molar potency ratio (MPR) the value of the EC-50 of adenosine divided by that of the analogue. Owing to the low water solubility of some of the analogues, solutions for intracoronary infusion were prepared by diluting stock solutions in dimethyl sulfoxide. In such instances, solutions of adenosine used to establish a standard of potency also contained dimethyl sulfoxide. […]

For data set [2], the target named is T2, Brain A1-adenosine receptor (Rattus norvegicus, UniProt P25099).
T2 construct: -cyclohexyladenosine to rat cerebral cortical membranes; from tissue; host or cells: rat cerebral cortical membranes
T2 sequence (P25099 1-326): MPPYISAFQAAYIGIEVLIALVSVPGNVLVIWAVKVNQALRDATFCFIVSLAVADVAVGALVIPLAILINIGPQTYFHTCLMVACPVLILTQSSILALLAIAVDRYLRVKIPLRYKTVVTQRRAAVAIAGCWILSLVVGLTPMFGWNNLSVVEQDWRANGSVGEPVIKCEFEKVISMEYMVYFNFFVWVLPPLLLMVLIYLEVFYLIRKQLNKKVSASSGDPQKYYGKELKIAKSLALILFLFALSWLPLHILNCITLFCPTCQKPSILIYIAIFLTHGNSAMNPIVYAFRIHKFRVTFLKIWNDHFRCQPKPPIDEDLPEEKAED
Briefly: A1-binding assay: antagonism of binding of 1nM [3H]N6-cyclohexyladenosine to rat cerebral cortical membranes. To be noted: molar potency ratio derived from Ki values; rat cerebral cortical membranes.
Description: as §1
^b Molar potency ratio relative to adenosine, derived from Ki
values for antagonism of binding of 1nM [^3 H]N^6
-cyclohexyladenosine to rat cerebral cortical membranes.
as §2

Data set [3] addresses T3, A2-adenosine receptor (adenylate cyclase, human platelet membranes) (Homo sapiens, UniProt P29274).
T3 construct: stimulation of adenylate cyclase in human platelet membranes; from tissue; host or cells: human platelet membranes
Nature of the data set: Stimulation of adenylate cyclase in human platelet membranes. The data set is classed as biochemical. The note with it: human platelet membranes; read-out: IC50 (printed lC50), stimulation of adenylate cyclase.

The next data set in a line: Water solubility. The format is physicochemical.
The subject of a further data set is A1-receptors. To be noted: background; cited from earlier work.
The subject of another data set is A2-receptors. The note with it: background; cited from earlier work.

T1 sequence (P11617 whole entry): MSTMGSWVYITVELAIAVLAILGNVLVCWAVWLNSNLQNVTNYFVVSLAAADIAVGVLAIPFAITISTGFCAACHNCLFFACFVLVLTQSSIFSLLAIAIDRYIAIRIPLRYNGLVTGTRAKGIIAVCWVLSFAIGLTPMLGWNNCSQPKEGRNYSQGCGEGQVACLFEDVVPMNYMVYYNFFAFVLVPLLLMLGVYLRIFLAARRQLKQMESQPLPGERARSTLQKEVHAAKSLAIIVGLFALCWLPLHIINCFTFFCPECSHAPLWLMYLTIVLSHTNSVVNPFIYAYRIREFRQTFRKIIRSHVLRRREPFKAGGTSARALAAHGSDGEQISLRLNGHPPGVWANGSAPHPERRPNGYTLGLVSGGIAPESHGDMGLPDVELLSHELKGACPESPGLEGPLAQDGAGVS
T3 sequence (P29274 whole entry): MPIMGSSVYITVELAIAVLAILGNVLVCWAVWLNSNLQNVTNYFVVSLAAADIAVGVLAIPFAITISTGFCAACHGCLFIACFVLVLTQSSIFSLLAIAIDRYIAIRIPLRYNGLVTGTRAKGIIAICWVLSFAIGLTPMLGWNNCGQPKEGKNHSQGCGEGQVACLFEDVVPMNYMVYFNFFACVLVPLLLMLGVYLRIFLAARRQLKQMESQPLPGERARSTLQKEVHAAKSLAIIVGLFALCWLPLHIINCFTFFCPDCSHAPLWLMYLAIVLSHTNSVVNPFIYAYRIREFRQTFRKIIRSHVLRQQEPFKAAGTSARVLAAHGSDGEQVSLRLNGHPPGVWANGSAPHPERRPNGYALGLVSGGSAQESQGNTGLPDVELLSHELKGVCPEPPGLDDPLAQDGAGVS

As to `O=C(CCCC[C@@H]1SC[C@@H]2NC(=O)N[C@@H]21)NCCCCCC(=O)NCCNC(=O)Cc1ccc(NC(=O)Cc2ccc(Nc3ncnc4c3ncn4[C@@H]3O[C@H](CO)[C@@H](O)[C@H]3O)cc2)cc1` [Compound 19], in data set [1] (coronary vasodilation, intracoronary infusion), the “Onset of Action” value was in the range of 20 to 30 s. Also, the “A2 versus A1 receptor selectivity (in words)” value in data set [1] (dog coronary A2 versus rat brain A1) is “highly divergent at A1 and A2 receptors”. In data set [1] (intracoronary infusion), the “Duration of Vasodilation” value is over 1 h and the “duration of vasodilation (in words)” value is recorded as “often lasted for an hour or more”. Besides, the “coronary vasoactivity (in words)” value in data set [1] (intracoronary infusion, dog) is on record as “most active analogue; also recorded: three most active analogues”. In addition, the “A2 Receptor MPR Relative to Ado” value in data set [1] (molar potency ratio: EC50 of adenosine divided by that of the analogue, coronary, dog) turned out to be 10.2 ± 7.3. Moreover, the “A2/A1 potency ratio (MPR(A2)/MPR(A1))” value in data set [1] (ratio of MPR (MeAdo) at dog coronary A2 receptor to MPR at rat brain A1 receptor) came to 61. In data set [2], the “A1 Receptor MPR Relative to MeAdo” value amounted to 3.3. Moreover, the IC50 in data set [3] stood at 2.4 µM. Moreover, the “water solubility (in words)” value in “Water solubility” is on record as “practically insoluble in water”.

For `CCNC(=O)[C@H]1O[C@@H](n2cnc3c(N)ncnc32)[C@H](O)[C@@H]1O` [Compound 1, N-Ethyladenosine-5'-uronamide], in data set [1] (intracoronary infusion, dog), the “coronary vasoactivity (in words)” value is reported as “exceptionally potent”. Also, the “order of potency at A1-receptors” value in the data set on A1-receptors was “R-PIA, CHA>NECA>S-PIA”. For the same compound, the “potency at A2-receptors (rank in words)” value in the data set on A2-receptors is on record as “clearly the most potent”.

Source of the values: patent US5284834A, “Adenosine functionalized congeners as cardiovascular treating agents for animals and methods for using same” (priority 1992, dated 1994).
